Results taken from the NIST ThermoML archive (doi:10.1021/acs.jced.5b01075).
Several values for one entry are separate records, joined by “and”; a condition that tells them apart may be missing. Equal values may be shown once.

Settings: 101.33 kPa, Liquid; for speed of sound: Sing-around technique in a fixed-path interferometer; for mass density: Vibrating tube method

Cc1ccccc1 [toluene]
Settings	mass density	speed of sound [m/s]
293.15 K	866.816 kg/m3 and 866.8 kg/m3	1326.5
303.15 K	857.497 kg/m3 and 857.5 kg/m3	1283.5
313.15 K	848.114 kg/m3 and 848.1 kg/m3	1241
323.15 K	838.661 kg/m3 and 838.7 kg/m3	1198.9
333.15 K	829.124 kg/m3 and 829.1 kg/m3	1157.5
343.15 K	819.5 kg/m3	–
353.15 K	809.7 kg/m3	–
